Here are results for one molecule from US20140348819A1, “Methods of Treating Cancer” (Dana-Farber Cancer Institute, Inc., priority 2011, published 2014).

The test system of one assay is G361. The assay can be described thus: Proliferation of G361 melanoma cells alone or co-cultured with stromal cell lines, PLX4720 with or without Crizotinib (Table 5). The assay is classed as cell-based, human. To be noted: for normalized proliferation: G361, PLX4720 - 2 uM, DMSO (no Crizotinib). An excerpt:
(§1) The DLD-1 cells do harbor the BRAF activating mutation V600E but are not sensitive at all to BRAF inhibition. They actually grow faster under BRAFi.
(§2) Proliferation was quantified after 7 days and normalized to non-treated cells. Bars represent standard error between replicates (n=3).
(§3) The propensity of tumors to develop resistance to a wide range of chemotherapy drugs imposes a critical hurdle to the treatment of most types of cancers. […] An optimized high-throughput screening system was used to explore the prevalence and significance of stromal cell-mediated chemoresistance in solid tumors. Forty-six GFP-labeled human cancer cell lines (Table 1) were cultured on 384-well plates either alone or co-cultured with each one of 23 human stromal cell lines (Table 3). The effects of a diverse range of widely used chemotherapy drugs (Table 2) on the proliferation of the single- or co-cultured cancer cell lines were assessed through GFP readings and through fluorescence microscopy.

For assay [1], the system named is V600E B-RAF melanoma cell lines. To be noted: pre-clinical trials; cited from earlier work.
For another assay, the system named is SK-MEL-28. The assay can be described thus: Proliferation of SK-MEL-28 melanoma cells alone or co-cultured with stromal cell lines, PLX4720 with or without Crizotinib (Table 5). Type of assay: cell-based, human. To be noted: DMSO (no Crizotinib).
Source text: as §1, §2, §3

In the next assay the test system is WiDr. The assay can be described thus: Sensitivity of colorectal cancer cell line to PLX4720 with or without stromal cells (FIG. 2B). Type of assay: cell-based, human. To be noted: colorectal cancer cell lines represented by WiDr. From the text:
The propensity of tumors to develop resistance to a wide range of chemotherapy drugs imposes a critical hurdle to the treatment of most types of cancers. While the role of the cellular microenvironment in tumor progression and metastasis has been increasingly studied in recent years, its effects on drug resistance are still underappreciated and poorly understood. An optimized high-throughput screening system was used to explore the prevalence and significance of stromal cell-mediated chemoresistance in solid tumors. Forty-six GFP-labeled human cancer cell lines (Table 1) were cultured on 384-well plates either alone or co-cultured with each one of 23 human stromal cell lines (Table 3). The effects of a diverse range of widely used chemotherapy drugs (Table 2) on the proliferation of the single- or co-cultured cancer cell lines were assessed through GFP readings and through fluorescence microscopy. Stroma-mediated primary chemoresistance was clearly detected across most cancer cell lines and chemotherapy drugs (FIGS. 1A and 1B, Tables 3 and 4). In most cases, only a small subset of the stromal cells could render a specific cancer-cell line more resistant to a specific drug, and this subset was usually the same across cancer cell lines from the same origin (FIGS. 1-4). […]

In the next assay the test system is SK-MEL-5. Briefly: Proliferation of SK-MEL-5 melanoma cells alone or co-cultured with stromal cell lines, PLX4720 with or without Crizotinib (Table 5). The assay is classed as cell-based, human. To be noted: DMSO (no Crizotinib).
Source text: as §1, §2, §3

Regarding `CCCS(=O)(=O)Nc1ccc(F)c(C(=O)c2c[nH]c3ncc(Cl)cc23)c1F` [PLX4720], the normalized proliferation in the assay with G361 (1069sk) worked out at 0.1; with G361 (HS-5) it was 0.2; in the assay on G361 (LL86), 0.5; in the assay with G361 (No Fibro), 0.1; with G361 (Wi-38), 0.4; with SK-MEL-28 (1069sk, PLX4720 - 2 uM), 0.1. Moreover, the normalized proliferation is listed as 0.1 with SK-MEL-28 (HS-5, PLX4720 - 2 uM); 0.3 with SK-MEL-28 (LL86, PLX4720 - 2 uM); 0.1 in the assay on SK-MEL-28 (No Fibro, PLX4720 - 2 uM); 0.4 with SK-MEL-28 (Wi-38, PLX4720 - 2 uM); 0.4 in the assay with SK-MEL-5 (1069sk, PLX4720 - 2 uM); 0.5 in the assay on SK-MEL-5 (HS-5, PLX4720 - 2 uM). The normalized proliferation in the assay with SK-MEL-5 (LL86, PLX4720 - 2 uM) is on record as 0.8; with SK-MEL-5 (No Fibro, PLX4720 - 2 uM) it was 0.3; in the assay with SK-MEL-5 (Wi-38, PLX4720 - 2 uM), 0.6. Moreover, the “sensitivity to the BRAF inhibitor PLX4720” value with G361 (melanoma cell lines represented by G-361, FIG. 2B) is “sensitive”. In addition, the “sensitivity of V600E B-RAF melanoma cell lines” value in assay [1] was “extremely sensitive”. In the assay with WiDr, the “sensitivity to BRAFi” value is on record as “largely not sensitive”.
